Experimental data: ChEMBL document CHEMBL1142978, “Probing the anticancer activity of nucleoside analogues: a QSAR model approach using an internally consistent training set” (J Med Chem, 2007)

Test: Cytotoxicity against mouse L1210/0 cells after 48 hrs
Assay type: cell-based
Settings: Mus musculus, L1210/0, 48 h

Row | Structure (SMILES) | IC50 [µM]
1 | O=c1[nH]c(=O)n(COCCO)cc1Cl | > 200
2 | O=c1ccn(COCCO)c(=O)[nH]1 | > 200
3 | Cc1cn(COCCO)c(=O)[nH]c1=O | > 200
4 | CC(O)Cn1cnc2c(F)nc(N)nc21 (stereo not given) | > 200
5 | O=c1[nH]c(=O)n(COCCO)cc1I | > 200
6 | Nc1ncnc2c1ncn2CC1CCC(CO)C1 (stereo not given) | > 200
7 | O=c1ccn(CC2CCC(CO)C2)c(=O)[nH]1 (stereo not given) | > 200
8 | Nc1ccn(C[C@@H]2C[C@H](CO)c3ccccc32)c(=O)n1 | > 200
9 | CC(=O)OC(C)Cn1cnc2c(Cl)nc(N)nc21 (stereo not given) | > 200
10 | C[S+]([O-])c1cn([C@H]2C[C@H](O)[C@@H](CO)O2)c(=O)[nH]c1=O (stereo not given in full) | > 200
11 | CC1(C)[C@@H](CCCO)C[C@H]1n1nnc2c(Cl)nc(N)nc21 | > 200
12 | OC[C@@H]1CCC[C@H]1n1cnc2c(O)ncnc21 | > 200
13 | COc1nc(I)nc2c1ncn2COCCO | > 200
14 | O=c1[nH]c(=O)n([C@H]2C[C@H](O)[C@@H](CO)O2)cc1/C=C/Cl | > 200
15 | O=c1ccn([C@@H]2C[C@H](CO)C[C@@H]2CO)c(=O)[nH]1 | > 200
16 | O=C1O/C(=C\Cn2ccc(=O)[nH]c2=O)C(Cc2ccccc2)=C1O | > 200
17 | C[C@H](O)C1CC(Cn2nnc3c(=O)[nH]cnc32)C1(C)C (stereo not given in full) | > 200
18 | CCCc1cn([C@H]2C[C@H](O)[C@@H](CO)O2)c(=O)[nH]c1=O | > 200
19 | CNc1nc2c(=O)[nH]c(N)nc2n1COCCO | > 200
20 | CC1(C)C(CO)CC1Cn1cnc2c(=O)[nH]c(N)nc21 (stereo not given) | > 200
21 | COc1c(C)c(-c2cn([C@H]3C[C@H](O)[C@@H](CO)O3)c(=O)[nH]c2=O)c(OC)c2ccccc12 | > 200
22 | O=c1ccn([C@@H]2O[C@H](CO)[C@H](F)[C@@H]2O)c(=O)[nH]1 | > 200
23 | CC(C)(C)C#Cc1cn([C@@H]2O[C@H](CO)[C@@H](O)[C@@H]2O)c(=O)[nH]c1=O | > 200
24 | CC1(C)C(CO)CC1Cn1nnc2c(Cl)nc(N)nc21 (stereo not given) | > 200

Row | Structure (SMILES) | IC50 [µM]
25 | COC1=C(OC)/C(=C/C(n2cnc3c(N)ncnc32)P(O)(=S)OC)OC1=O (stereo not given) | > 200
26 | CCC#Cc1cn([C@H]2C[C@H](O)[C@@H](CO)O2)c(=O)[nH]c1=O | > 200
27 | CC1(C)C(CO)CC1Cn1cnc2c(N)nc(N)nc21 (stereo not given) | > 200
28 | Cc1ccc(S(=O)(=O)OCCC#Cc2cn([C@H]3C[C@H](O)[C@@H](CO)O3)c(=O)[nH]c2=O)cc1 | > 200
29 | Nc1ncnc2c1ncn2[C@@H]1O[C@H](C=O)C[C@@H]1O | > 200
30 | COc1cc(-c2cn([C@H]3C[C@H](O)[C@@H](CO)O3)c(=O)[nH]c2=O)c(OC)c(C)c1C | > 200
31 | CCC#Cc1cn([C@@H]2O[C@H](CO)[C@@H](O)[C@@H]2O)c(=O)[nH]c1=O | > 200
32 | O=C1C=CN(COCCO)C(=O)C1 | > 200
33 | COCC#Cc1cn([C@H]2C[C@H](O)[C@@H](CO)O2)c(=O)[nH]c1=O | > 200
34 | CC(O)Cn1cnc2c(N)nc(I)nc21 (stereo not given) | > 200
35 | Nc1nc(O)c2nnn([C@H]3CCCC[C@H]3CO)c2n1 | > 200
36 | O=c1ccn(C[C@@H]2CCC[C@H]2CO)c(=O)[nH]1 | > 200
37 | CCCC/C=C\c1cn([C@H]2C[C@H](O)[C@@H](CO)O2)c(=O)[nH]c1=O | > 200
38 | Nc1ncnc2c1ncn2[C@@H]1O[C@H](/C=C/F)[C@H](O)[C@@H]1O | > 200
39 | Nc1ncnc2c1ncn2C[C@@H]1CCC[C@H]1CO | > 200
40 | CC1(C)C(CO)CC1Cn1nnc2c(=O)[nH]c(N)nc21 (stereo not given) | > 200
41 | CN(C)c1nc2c(=O)[nH]c(N)nc2n1COCCO | > 200
42 | CC1(C)[C@@H](CCCO)C[C@H]1n1cnc2c(=O)[nH]c(N)nc21 | > 200
43 | Nc1nc(O)c2ncn([C@H]3CCCC[C@H]3CO)c2n1 | > 200
44 | CC1(C)[C@@H](CO)CC[C@@]1(C)Cn1ccc(=O)[nH]c1=O | > 200
45 | C[C@H](O)C1CC(CCn2cnc3c(=O)[nH]cnc32)C1(C)C (stereo not given in full) | > 200
46 | Nc1nc2c(nc(O)n2COCCO)c(=O)[nH]1 | > 200
47 | C=CC#Cc1cn([C@H]2C[C@H](O)[C@@H](CO)O2)c(=O)[nH]c1=O | > 200
48 | Nc1nc(I)nc2c1ncn2COCCO | > 200

Row | Structure (SMILES) | IC50 [µM]
49 | CC#Cc1cn([C@H]2C[C@H](O)[C@@H](CO)O2)c(=O)[nH]c1=O | > 200
50 | COC1=C(OC)C(=CCn2cnc3c(N)ncnc32)OC1=O | > 200
51 | O=c1[nH]c(=O)n([C@H]2C[C@H](O)[C@@H](CO)O2)cc1C#Cc1ccccc1 | > 200
52 | CO/N=C/C1CC(n2cnc3c(N)ncnc32)C(O)C1O (stereo not given) | > 200
53 | CC(C)(C)C#Cc1cn([C@H]2C[C@H](O)[C@@H](CO)O2)c(=O)[nH]c1=O | > 200
54 | CC(O)Cn1cnc2c(S)nc(F)nc21 (stereo not given) | > 200
55 | CCCCC#Cc1cn([C@H]2C[C@H](O)[C@@H](CO)O2)c(=O)[nH]c1=O | > 200
56 | CC1(C)[C@@H](CCCO)C[C@H]1n1nnc2c(=O)[nH]c(N)nc21 | > 200
57 | OC[C@@H]1CCC[C@H]1Cn1cnc2c(O)ncnc21 | > 200
58 | Nc1nc2c(nc(Br)n2COCCO)c(=O)[nH]1 | > 200
59 | C[C@@]1(CO)O[C@H](c2ccc(N)cc2F)C[C@@H]1O | > 200
60 | O=c1[nH]c(=O)n([C@H]2C[C@H](O)[C@@H](CO)O2)cc1C#CCCCO | > 200
61 | CCCCCCc1cn([C@H]2C[C@H](O)[C@@H](CO)O2)c(=O)[nH]c1=O | > 200
62 | O=c1[nH]c(=O)n([C@H]2C[C@H](O)[C@@H](CO)O2)cc1O | > 200
63 | CC(O)Cn1cnc2c(Cl)nc(I)nc21 (stereo not given) | > 200
64 | O=c1ccn(C[C@@H]2C[C@H](CO)c3ccccc32)c(=O)[nH]1 | > 200
65 | C[C@H](O)C1CC(Cn2cnc3c(=O)[nH]cnc32)C1(C)C (stereo not given in full) | > 200
66 | Nc1nc(Cl)c2ncn(COCCO)c2n1 | > 200
67 | O=c1[nH]c(=O)n(C2C[C@@H](CO)[C@@H](CO)C2)cc1I (stereo not given in full) | > 200
68 | O=c1[nH]c(=O)n(COCCO)cc1F | > 200
69 | Nc1ccn(COCCO)c(=O)n1 | > 200
70 | O=c1[nH]c(=O)n(COCCO)cc1Br | > 200
71 | Nc1nc(=O)ccn1COCCO | > 200
72 | CC(=O)OCCOCn1cnc2c(Cl)nc(N)nc21 | > 200

Row | Structure (SMILES) | IC50 [µM]
73 | CN(C)c1ncnc2c1ncn2COCCO | > 200
74 | COC1=C(OC)C(O)(CCn2cnc3c(Cl)ncnc32)OC1=O (stereo not given) | > 200
75 | COC1=C(OC)C(O)(CCn2cnc3c(N)ncnc32)OC1=O (stereo not given) | > 200
76 | O=c1[nH]c(=O)n(COCCO)cc1/C=C/Br | > 200
77 | O=c1[nH]c(=O)n(COCCO)cc1[N+](=O)[O-] | > 200
78 | O=C1O/C(=C\Cn2ccc(=O)[nH]c2=O)C(O)=C1O | > 200
79 | CCCCCC#Cc1cn([C@H]2C[C@H](O)[C@@H](CO)O2)c(=O)[nH]c1=O | > 200
80 | CC1(C)[C@@H](CO)CC[C@@]1(C)Cn1cc(Br)c(=O)[nH]c1=O | > 200
81 | O=c1[nH]c(=O)n([C@@H]2CCC[C@H]2CO)cc1I | > 200
82 | O=c1ccn([C@@H]2CCC[C@H]2CO)c(=O)[nH]1 | > 200
83 | CC1(C)[C@@H](CCCO)C[C@H]1n1cnc2c(Cl)nc(N)nc21 | > 200
84 | CSc1cn([C@H]2C[C@H](O)[C@@H](CO)O2)c(=O)[nH]c1=O | > 200
85 | N#Cc1cn([C@H]2C[C@H](O)[C@@H](CO)O2)c(=O)[nH]c1=O | > 200
86 | O=c1[nH]cnc2c1nnn2[C@@H]1C[C@H](CO)[C@@H](CO)[C@H]1CO | > 200
87 | O=c1[nH]c(=O)n([C@H]2C[C@H](O)[C@@H](CO)O2)cc1C#CCO | > 200
88 | CC(=O)OC(C)Cn1cnc2c(N)nc(I)nc21 (stereo not given) | > 200
89 | CC1(C)C(CO)CC1Cn1cnc2c(Cl)nc(N)nc21 (stereo not given) | > 200
90 | O=c1[nH]c(=O)n([C@H]2C[C@H](O)[C@@H](CO)O2)cc1C#CCCO | > 200
91 | CC1(C)[C@@H](CCCO)C[C@H]1n1nnc2c(N)nc(N)nc21 | > 200
92 | O=c1[nH]c(=O)n(C[C@H]2CCC[C@H]2CO)cc1I | > 200
93 | C#COc1cn([C@H]2C[C@H](O)[C@@H](CO)O2)c(=O)[nH]c1=O | > 200
94 | OCCOCn1cnc2c(O)ncnc21 | > 200
95 | CC1(C)[C@@H](CO)CC[C@@]1(C)Cn1cnc2c(=O)[nH]cnc21 | > 200
96 | CC1(C)C(CO)CC1Cn1nnc2c(N)nc(N)nc21 (stereo not given) | > 200

Row | Structure (SMILES) | IC50 [µM]
97 | O=c1[nH]cnc2c1ncn2C1CC(CO)C(CO)C1 (stereo not given) | > 200
98 | COC1=C(OC)/C(=C/CP(=O)(OC)OC)OC1=O | > 200
99 | CS(=O)(=O)Cc1cn([C@H]2C[C@H](O)[C@@H](CO)O2)c(=O)[nH]c1=O | > 200
100 | O=c1[nH]c(=O)n([C@H]2C[C@H](O)[C@@H](CO)O2)cc1C1SCCS1 | > 200
101 | Nc1nc2c(nc(Cl)n2COCCO)c(=O)[nH]1 | > 200
102 | OC[C@H]1C[C@@H](Cn2cnc3c(O)ncnc32)c2ccccc21 | > 200
103 | CCCC#Cc1cn([C@H]2C[C@H](O)[C@@H](CO)O2)c(=O)[nH]c1=O | > 200
104 | O=c1[nH]cnc2c1nnn2CC1CCC(CO)C1 (stereo not given) | > 200
105 | O=c1[nH]c(=O)n(CC2CCC(CO)C2)cc1I (stereo not given) | > 200
106 | CCO/N=C\C1OC(n2cnc3c(N)ncnc32)C(O)C1O (stereo not given) | > 200
107 | Nc1nc2c(nc(N)n2COCCO)c(=O)[nH]1 | > 200
108 | CC1(C)[C@@H](CO)CC[C@@]1(C)Cn1cc(I)c(=O)[nH]c1=O | > 200
109 | O=c1[nH]cnc2c1nnn2C[C@H]1CCC[C@H]1CO | > 200
110 | O=c1[nH]cnc2c1ncn2CC1CCC(CO)C1 (stereo not given) | > 200
111 | Nc1nc(=O)n(COCCO)cc1[N+](=O)[O-] | > 200
112 | C[C@@]1(CO)O[C@H](c2cc(F)c(N)cc2F)C[C@@H]1O | > 200
113 | O=c1[nH]cnc2c1ncn2[C@@H]1C[C@@H]2COC[C@H]2[C@H]1CO | > 200
114 | Cc1cn(C[C@@H]2C[C@H](CO)c3ccccc32)c(=O)[nH]c1=O | > 200
115 | Nc1ncnc2c1ncn2C1OC(/C=N/O)CC1O (stereo not given) | > 200
116 | COc1c(C)c(C)c(OC)c(-c2cn([C@H]3C[C@H](O)[C@@H](CO)O3)c(=O)[nH]c2=O)c1C | > 200
117 | O=C1O/C(=C\Cn2cc(C(F)(F)F)c(=O)[nH]c2=O)C(O)=C1O | > 200
118 | O=c1[nH]c(=O)n([C@@H]2C[C@H](CO)C[C@@H]2CO)cc1I | > 200
119 | CC1(C)[C@@H](CO)CC[C@@]1(C)Cn1nnc2c(=O)[nH]cnc21 | > 200
120 | COc1ccc(C(=O)/C=C/c2cc(O)nc(O)n2)cc1 | > 200
